Converted amounts (≈) assume the structure as drawn.
Columns and labels:
Type in all cases: functional
Escherichia coli = experiment: Antibacterial activity against Escherichia coli ATCC 25922 assessed as bacterial growth inhibition by CLSI protocol agar-based assay
Staphylococcus aureus = experiment: Antibacterial activity against methicillin-resistant Staphylococcus aureus OITII-971 assessed as bacterial growth inhibition by CLSI protocol agar-based assay
Streptococcus pneumoniae = experiment: Antibacterial activity against Streptococcus pneumoniae IID553 assessed as bacterial growth inhibition by CLSI protocol agar-based assay
Enterococcus faecium = experiment: Antibacterial activity against Vanomycin-resistant Enterococcus faecium assessed as bacterial growth inhibition by CLSI protocol agar-based assay
Acinetobacter baumannii = experiment: Antibacterial activity against Acinetobacter baumannii IID876 assessed as bacterial growth inhibition by CLSI protocol agar-based assay
Pseudomonas aeruginosa = experiment: Antibacterial activity against Pseudomonas aeruginosa PAO1 assessed as bacterial growth inhibition by CLSI protocol agar-based assay

| Compound | MIC (Escherichia coli) | MIC (Staphylococcus aureus) | MIC (Streptococcus pneumoniae) | MIC (Enterococcus faecium) | MIC (Acinetobacter baumannii) | MIC (Pseudomonas aeruginosa) |
| --- | --- | --- | --- | --- | --- | --- |
| COc1ccc2ncc(F)c(CCC34CCC(NCc5ccc6c(n5)NC(=O)CO6)(CC3)CO4)c2n1 | 1 µg/mL (≈ 2.03 µM) | 0.016 µg/mL (≈ 0.0324 µM) | – | – | – | – |
| O=C1COc2ccc(CNC34CCC(C[C@]5(O)Cn6c(=O)ccc7ncc(F)c5c76)(CC3)OC4)nc2N1 | 4 µg/mL (≈ 7.88 µM) | 0.25 µg/mL (≈ 0.493 µM) | – | – | – | – |
| O=c1ccc2ncc(F)c3c2n1C[C@@]3(O)CC12CCC(NCc3cc4c(cn3)OCCO4)(CC1)CO2 | 16 µg/mL (≈ 32.4 µM) | 0.5 µg/mL (≈ 1.01 µM) | – | – | – | – |
| O=C1COc2ccc(CNC34CCC(CCc5c(F)cnc6ccc(=O)n(C/C=N/O)c56)(CC3)OC4)nc2N1 | 4 µg/mL (≈ 7.45 µM) | 0.25 µg/mL (≈ 0.466 µM) | 0.5 µg/mL (≈ 0.932 µM) | 4 µg/mL (≈ 7.45 µM) | 2 µg/mL (≈ 3.73 µM) | 8 µg/mL (≈ 14.9 µM) |
| O=C(NC12CCC(CCc3c(F)cnc4ccc(=O)n(CCO)c34)(CC1)OC2)c1cc2c(cn1)OCCO2 | > 32 µg/mL | 1 µg/mL (≈ 1.91 µM) | 2 µg/mL (≈ 3.81 µM) | 16 µg/mL (≈ 30.5 µM) | 32 µg/mL (≈ 61 µM) | > 32 µg/mL |
| O=C(O)Cn1c(=O)ccc2ncc(F)c(CCC34CCC(NCc5ccc6c(n5)NC(=O)CO6)(CC3)CO4)c21 | > 64 µg/mL | 16 µg/mL (≈ 29.8 µM) | 64 µg/mL (≈ 119 µM) | > 64 µg/mL | > 64 µg/mL | > 64 µg/mL |
| O=C1COc2ccc(C(=O)NC34CCC(CCc5c(F)cnc6ccc(=O)n(CCO)c56)(CC3)OC4)nc2N1 | 16 µg/mL (≈ 29.8 µM) | 0.125 µg/mL (≈ 0.233 µM) | 1 µg/mL (≈ 1.86 µM) | 4 µg/mL (≈ 7.44 µM) | 4 µg/mL (≈ 7.44 µM) | 32 µg/mL (≈ 59.5 µM) |
| CCOC(=O)Cn1c(=O)ccc2ncc(F)c(CCC34CCC(NCc5ccc6c(n5)NC(=O)CO6)(CC3)CO4)c21 | 8 µg/mL (≈ 14.1 µM) | 0.063 µg/mL (≈ 0.111 µM) | 1 µg/mL (≈ 1.77 µM) | 8 µg/mL (≈ 14.1 µM) | 1 µg/mL (≈ 1.77 µM) | 32 µg/mL (≈ 56.6 µM) |
| O=c1ccc2ncc(F)c(CCC34CCC(NCc5cc6c(cn5)OCCC6)(CC3)CO4)c2n1CCO | 8 µg/mL (≈ 15.7 µM) | 0.063 µg/mL (≈ 0.124 µM) | 0.25 µg/mL (≈ 0.492 µM) | 4 µg/mL (≈ 7.86 µM) | 1 µg/mL (≈ 1.97 µM) | > 64 µg/mL |
| CC(C)(O)Cn1c(=O)ccc2ncc(F)c(CCC34CCC(NCc5ccc6c(n5)NC(=O)CO6)(CC3)CO4)c21 | > 64 µg/mL | 8 µg/mL (≈ 14.5 µM) | 64 µg/mL (≈ 116 µM) | > 64 µg/mL | 64 µg/mL (≈ 116 µM) | > 64 µg/mL |
| O=C1COc2ccc(CNC34CCC(CCc5c(F)cnc6ccc(=O)n(CCO)c56)(CC3)OC4)nc2N1 | 2 µg/mL (≈ 3.82 µM) | 0.063 µg/mL (≈ 0.12 µM) | 0.5 µg/mL (≈ 0.955 µM) | 2 µg/mL (≈ 3.82 µM) | 0.5 µg/mL (≈ 0.955 µM) | 8 µg/mL (≈ 15.3 µM) |
| CN(C)CCn1c(=O)ccc2ncc(F)c(CCC34CCC(NCc5ccc6c(n5)NC(=O)CO6)(CC3)CO4)c21 | 1 µg/mL (≈ 1.82 µM) | 0.5 µg/mL (≈ 0.908 µM) | 1 µg/mL (≈ 1.82 µM) | 16 µg/mL (≈ 29.1 µM) | 0.5 µg/mL (≈ 0.908 µM) | 8 µg/mL (≈ 14.5 µM) |
| O=C1COc2ccc(CNC34CCC(CCc5c(F)cnc6ccc(=O)n(CCN7CCOCC7)c56)(CC3)OC4)nc2N1 | > 16 µg/mL | 1 µg/mL (≈ 1.69 µM) | 2 µg/mL (≈ 3.37 µM) | 16 µg/mL (≈ 27 µM) | 8 µg/mL (≈ 13.5 µM) | > 16 µg/mL |
| N#CCn1c(=O)ccc2ncc(F)c(CCC34CCC(NCc5ccc6c(n5)NC(=O)CO6)(CC3)CO4)c21 | 1 µg/mL (≈ 1.93 µM) | 0.016 µg/mL (≈ 0.0309 µM) | 0.25 µg/mL (≈ 0.482 µM) | 2 µg/mL (≈ 3.86 µM) | 0.25 µg/mL (≈ 0.482 µM) | 4 µg/mL (≈ 7.71 µM) |
| O=C(NC12CCC(CCc3c(F)cnc4ccc(=O)n(CCO)c34)(CC1)OC2)c1cc2c(cn1)OCCC2 | > 32 µg/mL | 0.5 µg/mL (≈ 0.957 µM) | 1 µg/mL (≈ 1.91 µM) | 16 µg/mL (≈ 30.6 µM) | 8 µg/mL (≈ 15.3 µM) | > 32 µg/mL |
| O=c1ccc2ncc(F)c(CCC34CCC(NCc5ccc6nsnc6c5)(CC3)CO4)c2n1CCO | 32 µg/mL (≈ 62.8 µM) | 0.125 µg/mL (≈ 0.245 µM) | 1 µg/mL (≈ 1.96 µM) | 8 µg/mL (≈ 15.7 µM) | 4 µg/mL (≈ 7.85 µM) | > 64 µg/mL |

| Compound | MIC (Escherichia coli) | MIC (Staphylococcus aureus) | MIC (Streptococcus pneumoniae) | MIC (Enterococcus faecium) | MIC (Acinetobacter baumannii) | MIC (Pseudomonas aeruginosa) |
| --- | --- | --- | --- | --- | --- | --- |
| O=C1COc2ccc(CNC34CCC(CCc5ccnc6ccc(=O)n(CCO)c56)(CC3)OC4)nc2N1 | 8 µg/mL (≈ 15.8 µM) | 2 µg/mL (≈ 3.96 µM) | 4 µg/mL (≈ 7.91 µM) | 16 µg/mL (≈ 31.6 µM) | 8 µg/mL (≈ 15.8 µM) | 32 µg/mL (≈ 63.3 µM) |
| CN(C)C(=O)Cn1c(=O)ccc2ncc(F)c(CCC34CCC(NCc5ccc6c(n5)NC(=O)CO6)(CC3)CO4)c21 | 32 µg/mL (≈ 56.7 µM) | 1 µg/mL (≈ 1.77 µM) | 4 µg/mL (≈ 7.08 µM) | 32 µg/mL (≈ 56.7 µM) | 8 µg/mL (≈ 14.2 µM) | 64 µg/mL (≈ 113 µM) |
| NCCn1c(=O)ccc2ncc(F)c(CCC34CCC(NCc5ccc6c(n5)NC(=O)CO6)(CC3)CO4)c21 | 1 µg/mL (≈ 1.91 µM) | 1 µg/mL (≈ 1.91 µM) | 1 µg/mL (≈ 1.91 µM) | 8 µg/mL (≈ 15.3 µM) | 16 µg/mL (≈ 30.6 µM) | 2 µg/mL (≈ 3.83 µM) |
| N#Cc1cnc2ccc(=O)n(CCO)c2c1CCC12CCC(NCc3ccc4c(n3)NC(=O)CO4)(CC1)CO2 | 4 µg/mL (≈ 7.54 µM) | 0.125 µg/mL (≈ 0.236 µM) | 1 µg/mL (≈ 1.88 µM) | 4 µg/mL (≈ 7.54 µM) | 1 µg/mL (≈ 1.88 µM) | 16 µg/mL (≈ 30.2 µM) |
| C[C@@H]1CCc2cc(CNC34CCC(CCc5c(F)cnc6ccc(=O)n(CCO)c56)(CC3)OC4)ncc2O1 | > 64 µg/mL | 1 µg/mL (≈ 1.91 µM) | 1 µg/mL (≈ 1.91 µM) | 32 µg/mL (≈ 61.2 µM) | 64 µg/mL (≈ 122 µM) | > 64 µg/mL |
| O=c1ccc2ncc(F)c(CCC34CCC(NCc5cc6c(cn5)OCCO6)(CC3)CO4)c2n1CCO | 16 µg/mL (≈ 31.3 µM) | 0.125 µg/mL (≈ 0.245 µM) | 0.5 µg/mL (≈ 0.979 µM) | 2 µg/mL (≈ 3.92 µM) | 4 µg/mL (≈ 7.83 µM) | > 16 µg/mL |
| CNC(=O)Cn1c(=O)ccc2ncc(F)c(CCC34CCC(NCc5ccc6c(n5)NC(=O)CO6)(CC3)CO4)c21 | 32 µg/mL (≈ 58.1 µM) | 4 µg/mL (≈ 7.26 µM) | 1 µg/mL (≈ 1.82 µM) | 16 µg/mL (≈ 29.1 µM) | 64 µg/mL (≈ 116 µM) | 32 µg/mL (≈ 58.1 µM) |
| COc1ccc2nc(CNC34CCC(CCc5c(F)cnc6ccc(=O)n(CCO)c56)(CC3)OC4)c(F)cc2n1 | > 16 µg/mL | > 16 µg/mL | > 16 µg/mL | > 16 µg/mL | > 16 µg/mL | > 16 µg/mL |
| C[C@H]1CCc2cc(CNC34CCC(CCc5c(F)cnc6ccc(=O)n(CCO)c56)(CC3)OC4)ncc2O1 | 64 µg/mL (≈ 122 µM) | 1 µg/mL (≈ 1.91 µM) | 2 µg/mL (≈ 3.83 µM) | 32 µg/mL (≈ 61.2 µM) | 16 µg/mL (≈ 30.6 µM) | > 64 µg/mL |
| O=c1ccc2nc(CNC34CCC(CCc5c(F)cnc6ccc(=O)n(CCO)c56)(CC3)OC4)c(F)cc2[nH]1 | > 16 µg/mL | > 16 µg/mL | > 16 µg/mL | > 16 µg/mL | > 16 µg/mL | > 16 µg/mL |
| O=c1ccc2ncc(F)c(CCC34CCC(NCc5ccc6nonc6c5)(CC3)CO4)c2n1CCO | > 64 µg/mL | 2 µg/mL (≈ 4.05 µM) | 32 µg/mL (≈ 64.8 µM) | 64 µg/mL (≈ 130 µM) | 64 µg/mL (≈ 130 µM) | > 64 µg/mL |
| COc1ccc2nc(CNC34CCC(CCc5c(F)cnc6ccc(=O)n(CCO)c56)(CC3)OC4)c(F)c(C)c2n1 | 32 µg/mL (≈ 56.6 µM) | 32 µg/mL (≈ 56.6 µM) | 32 µg/mL (≈ 56.6 µM) | 32 µg/mL (≈ 56.6 µM) | 32 µg/mL (≈ 56.6 µM) | 32 µg/mL (≈ 56.6 µM) |
| CS(=O)(=O)NCCn1c(=O)ccc2ncc(F)c(CCC34CCC(NCc5ccc6c(n5)NC(=O)CO6)(CC3)CO4)c21 | 16 µg/mL (≈ 26.6 µM) | 0.5 µg/mL (≈ 0.832 µM) | 1 µg/mL (≈ 1.66 µM) | 8 µg/mL (≈ 13.3 µM) | 16 µg/mL (≈ 26.6 µM) | 32 µg/mL (≈ 53.3 µM) |
| NC(=O)Cn1c(=O)ccc2ncc(F)c(CCC34CCC(NCc5ccc6c(n5)NC(=O)CO6)(CC3)CO4)c21 | 32 µg/mL (≈ 59.6 µM) | 4 µg/mL (≈ 7.45 µM) | 4 µg/mL (≈ 7.45 µM) | 64 µg/mL (≈ 119 µM) | 64 µg/mL (≈ 119 µM) | 16 µg/mL (≈ 29.8 µM) |
| O=c1ccc2ncc(F)c(CCC34CCC(NCCCc5cc(F)ccc5F)(CC3)CO4)c2n1CCO | 16 µg/mL (≈ 31 µM) | 0.125 µg/mL (≈ 0.242 µM) | 0.5 µg/mL (≈ 0.97 µM) | 16 µg/mL (≈ 31 µM) | 1 µg/mL (≈ 1.94 µM) | 64 µg/mL (≈ 124 µM) |
| O=c1ccc2ncc(=O)n3c2n1C[C@H]3CN1CCC(NCc2cc3c(cn2)OCCC3)CC1 [GEPOTIDACIN] | 2 µg/mL (≈ 4.46 µM) | 0.25 µg/mL (≈ 0.557 µM) | – | – | – | – |
